Where a SMILES comes first, the peptide text is derived from it. The star is where a group is joined. Octanoyl = CCCCCCCC(=O)*; Boc = CC(C)(C)OC(=O)*

The test system of the experiment is SARS-CoV-2. The experiment in a line: Antiviral activity against SARS-CoV-2 Wuhan 5-2N variant infected in African green monkey Vero E6 cells measured for 3 days by WST-8 assay. It is filed as functional, organism-based. The note with it: Severe acute respiratory syndrome coronavirus 2, Wuhan 5-2N, Vero C1008, 72 h. On the technique in general: Formazan colour is commonly taken as a measure of viable cells.
Usually EC50 stands for the concentration at which the effect is half-maximal. Molecule `CCCCCCCC(=O)NCC(=O)N[C@@H](Cc1ccccc1)C(=O)N[C@H](C=O)Cc1c[nH]cn1` (Octanoyl-Gly-Phe-His-aldehyde) displayed an EC50 of 5 µM.

`CC(=O)NCC(=O)N[C@@H](Cc1ccccc1)C(=O)N[C@H](C=O)Cc1c[nH]cn1` (Ac-Gly-Phe-His-aldehyde) returned an EC50 of 66.1 µM. Molecule `CC(C)(C)OC(=O)NCC(=O)N[C@@H](Cc1ccccc1)C(=O)N[C@H](C=O)Cc1c[nH]cn1` (Boc-Gly-Phe-His-aldehyde) returned an EC50 of 5 µM.

Values taken from ChEMBL document CHEMBL6120938, “Covalent small-molecule inhibitors of SARS-CoV-2 Mpro: Insights into their design, classification, biological activity, and binding interactions” (Eur J Med Chem, 2024).
